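The compound was tested at five concentrations on cells cultured in 96-well plates, with a 48-hour exposure period. GI50: concentration for 50% inhibition of growth.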 The source made the active and inactive calls. Rule as the data show it: active = GI50 up to about 1.1 µM and inactive = higher.
Experiments:
Experiment in all cases: NCI anticancer screen, dose series, 48 h
ACHN = system: ACHN
COLO 205 = system: COLO 205
DU-145 = system: DU-145
HCT-116 = system: HCT-116
HL-60 = system: HL-60
HOP-92 = system: HOP-92
HT-29 = system: HT-29
Hs-578T = system: Hs-578T
K562 = system: K562
KM12 = system: KM12
MCF7 = system: MCF7
MDA-MB-231 = system: MDA-MB-231
NCI/ADR-RES = system: NCI/ADR-RES
OVCAR-5 = system: OVCAR-5
PC-3 = system: PC-3
SK-MEL-5 = system: SK-MEL-5
SN12C = system: SN12C
SNB-75 = system: SNB-75
SNB-78 = system: SNB-78
TK-10 = system: TK-10

| SMILES | GI50 (ACHN) | GI50 (COLO 205) | GI50 (DU-145) | GI50 (HCT-116) | GI50 (HL-60) | GI50 (HOP-92) | GI50 (HT-29) | GI50 (Hs-578T) | GI50 (K562) | GI50 (KM12) | GI50 (MCF7) | GI50 (MDA-MB-231) | GI50 (NCI/ADR-RES) | GI50 (OVCAR-5) | GI50 (PC-3) | GI50 (SK-MEL-5) | GI50 (SN12C) | GI50 (SNB-75) | GI50 (SNB-78) | GI50 (TK-10) |
| --- | --- | --- | --- | --- | --- | --- | --- | --- | --- | --- | --- | --- | --- | --- | --- | --- | --- | --- | --- | --- |
| Cc1oc2c(c1C(=O)c1ccccc1)C(=O)c1ccccc1C2=O | 4.65 µM (inactive) | 13.9 µM (inactive) | 11.8 µM (inactive) | 3.3 µM (inactive) | 2.28 µM (inactive) | 2.21 µM (inactive) | 17.8 µM (inactive) | 4.57 µM (inactive) | 2.23 µM (inactive) | 6.55 µM (inactive) | 4.07 µM (inactive) | 2.24 µM (inactive) | 3.52 µM (inactive) | 15.2 µM (inactive) | 6.79 µM (inactive) | 1.24 µM (inactive) | 11.7 µM (inactive) | 6.78 µM (inactive) | > 100 µM (inactive) | 19.1 µM (inactive) |
| Cc1ccc(S(=O)(=O)N/N=C\c2c3ccccc3[n+]([O-])c3ccccc23)cc1 | 2.7 µM (inactive) | 2.72 µM (inactive) |  | 0.472 µM (active) | 0.889 µM (active) | 3.68 µM (inactive) | 1.63 µM (inactive) |  | 0.36 µM (active) | 9.55 µM (inactive) |  |  |  | 14.7 µM (inactive) |  | 5.21 µM (inactive) | 4.59 µM (inactive) | 3.44 µM (inactive) | 6.71 µM (inactive) | 4.9 µM (inactive) |

Reference: ChEMBL document CHEMBL1201862, “PubChem BioAssay data set” (2004)
